The values below come from patent US8614333B2, “Acenaphtho heterocyclic compound and application thereof” (Dalian University of Technology, priority 2010, dated 2013).

Usually melting point stands for the temperature of the solid-liquid transition.

SMILES strings stand for the structures.

His-tagged Mcl-1 protein, sequence (Q07820 whole entry): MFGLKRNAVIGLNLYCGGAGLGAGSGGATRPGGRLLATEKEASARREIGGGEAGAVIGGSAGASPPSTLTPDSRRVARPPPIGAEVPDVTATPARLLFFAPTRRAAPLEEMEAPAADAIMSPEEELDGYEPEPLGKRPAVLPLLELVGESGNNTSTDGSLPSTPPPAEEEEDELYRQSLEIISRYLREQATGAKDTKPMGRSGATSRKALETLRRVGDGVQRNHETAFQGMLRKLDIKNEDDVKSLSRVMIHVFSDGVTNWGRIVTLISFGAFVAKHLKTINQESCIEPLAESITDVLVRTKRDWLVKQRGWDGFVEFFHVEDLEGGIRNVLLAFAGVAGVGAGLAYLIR
Bcl-2 protein, sequence (P10415 whole entry, species assumed): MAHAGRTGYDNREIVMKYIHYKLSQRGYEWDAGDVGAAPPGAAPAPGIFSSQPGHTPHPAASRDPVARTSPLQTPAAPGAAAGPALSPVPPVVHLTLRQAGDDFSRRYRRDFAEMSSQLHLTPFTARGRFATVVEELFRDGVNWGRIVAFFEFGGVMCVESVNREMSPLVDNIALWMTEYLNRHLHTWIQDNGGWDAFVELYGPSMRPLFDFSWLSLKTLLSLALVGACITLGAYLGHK

One data set has as its system BAX shift towards the chondriosome. Kind of data set: Co-localization between Bax protein and chondriosome, Bax-YFP in MCF-7 cells. The class given is cell-based. Particulars: Bax-YFP/Mito Tracker Red. Here is the method: 5 μg of Bax-YFP plasmid was transfected into MCF-7 cells by using calcium phosphate coprecipitation method, 24 hours later, the cells were inoculated in a 6-well plate (0.2×10^6 cells/well), and 10 μM of the compound 1 to be detected was added thereinto. 6 hours later, the cells were washed with PBS and hatched away from light with 50 nM Mito Tracker Red CMXRos (chondriosome specific probes; red) for 10 minutes. Then the cells were washed with PBS for three times, and the fluorescent image was scanned with Radiance2000 laser confocal microscopy (Bio-Rad, USA). Meanwhile, dual channel scanning was carried out, one channel was used to scan the green fluorescence of Bax-YFP, and the other channel was used to scan the red fluorescence of the CMXRos probe for indicating the chondriosome. […] When the Bax protein was localized on the chondriosome, the green and red fluorescence was superimposed into orange, as shown in FIG. 7.
Other 24 compounds were detected by the same experimental method as described above. […] Wherein the concentration and time meant that the detected compound simulated the BH3-only protein and driven the BAX to shift towards the chondriosome at the concentration for the time period.
Take `CCCCN(C)C1=C2C(=NC1=O)c1cccc3cccc2c13` [Compound 6, 9-(Butyl-methyl-amino)-acenaphtho[1,2-b]pyrrol-8-one]: the “Doses (concentration at which the compound drove the BAX to shift towards the chondriosome)” value turned out to be 4.0 µM.

As for `CCOc1ccc2c3c(cccc13)C1=NC(=O)C(NCCCc3ccccc3)=C12` [Compound 4, 3-Ethoxy-9-(3-phenyl-propylamino)-acenaphtho[1,2-b]pyrrol-8-one], the “Doses (concentration at which the compound drove the BAX to shift towards the chondriosome)” value worked out at 3.0 µM.

Regarding `CCCCNC1=C2C(=NC1=O)c1cccc3c(C(=O)c4ccccc4)ccc2c13` [Compound 5, 3-Benzoyl-9-butylamino-acenaphtho[1,2-b]pyrrol-8-one], the “Doses (concentration at which the compound drove the BAX to shift towards the chondriosome)” value was determined as 5.0 µM.

The same data set, now with this note: at the concentration given.
In the case of `CCCCN(C)C1=C2C(=NC1=O)c1cccc3cccc2c13` [Compound 6, 9-(Butyl-methyl-amino)-acenaphtho[1,2-b]pyrrol-8-one], the “Time (time period after which BAX shifted towards the chondriosome)” value is reported as 4 h.

Regarding `CCOc1ccc2c3c(cccc13)C1=NC(=O)C(NCCCc3ccccc3)=C12` [Compound 4, 3-Ethoxy-9-(3-phenyl-propylamino)-acenaphtho[1,2-b]pyrrol-8-one], the “Time (time period after which BAX shifted towards the chondriosome)” value is 4 h.

Consider `CCCCNC1=C2C(=NC1=O)c1cccc3c(C(=O)c4ccccc4)ccc2c13` [Compound 5, 3-Benzoyl-9-butylamino-acenaphtho[1,2-b]pyrrol-8-one], for which the “Time (time period after which BAX shifted towards the chondriosome)” value is recorded as 5 h.

For a further data set, the target named is His-tagged Mcl-1 protein (Homo sapiens, UniProt Q07820). Put plainly: ELISA assay, competitive binding to Mcl-1 protein (biotin-Bim/streptavidin plate). Particulars: 20 nM His-tagged Mcl-1, method calculates average IC50, read-out: Mcl-1 binding constants. As to the method:
(§1) The present inventors used fluorescence polarization assay to detect the bonding force between the protein and the compounds in a previous study (PCT/CN2010/075521). […] ELISA assay was used to detect the bonding force between the compounds and the protein in this application.
(§2) Biotinylated Bim peptide was diluted to 0.09 μg/mL in SuperBlock blocking buffer in PBS and incubated for 1.5 h in 96-well microtiter plates already coated with streptavidin to allow the formation of the complex between Biotin-Bim and streptavidin. All incubations were performed at room temperature unless otherwise noted. Each inhibitor was first dissolved in pure DMSO to obtain a 10 mM stock solution. For each tested inhibitor, different concentrations of the inhibitor were incubated with 20 nM His-tagged Mcl-1 protein in PBS for 1 h with a final DMSO concentration of 4%. The plates were washed three times with PBS containing 0.05% Tween-20. The inhibitor and protein mixture (100 μL) were transferred to the plate containing the biotin-Bim/streptavidin complex and incubated for 2 h. The plate was then washed as before and mouse anti-His antibody that conjugated with horseradish peroxidase was added into the wells and incubated for 1 h. The plate was then washed with PBS containing 0.05% Tween-20. Finally, TMB was added to each well; the enzymatic reaction was stopped after 30 min by addition of H2SO4 (100 μL, 2M). Absorbances were measured with a TECAN GENios (Swiss, TECAN) microplate reader using a wavelength of 450 nm. Three independent experiments were performed with each inhibitor to calculate average IC50 value and standard deviation (SD).
(§3) The BH3 analogous degrees of other 11 compounds were detected by using the experimental method as described above. The protein binding constant (binding constant in table 1) between them and Bcl-2 and Mcl-1 proteins were also on nM grade.
On to `CCCCN(C)C1=C2C(=NC1=O)c1cccc3cccc2c13` [Compound 6, 9-(Butyl-methyl-amino)-acenaphtho[1,2-b]pyrrol-8-one], for which the IC50 was 66 nM.

`CCOc1ccc2c3c(cccc13)C1=NC(=O)C(NCCCc3ccccc3)=C12` [Compound 4, 3-Ethoxy-9-(3-phenyl-propylamino)-acenaphtho[1,2-b]pyrrol-8-one]: the IC50 is 95 nM.

Regarding `CCCCNC1=C2C(=NC1=O)c1cccc3c(C(=O)c4ccccc4)ccc2c13` [Compound 5, 3-Benzoyl-9-butylamino-acenaphtho[1,2-b]pyrrol-8-one], the IC50 was 125 nM.

Tested on in another data set: not given
Experiment: not given
Conditions: not given
As to `CCCCN(C)C1=C2C(=NC1=O)c1cccc3cccc2c13` [Compound 6, 9-(Butyl-methyl-amino)-acenaphtho[1,2-b]pyrrol-8-one], the melting point was in the range of 245 to 246 °C.

`CCOc1ccc2c3c(cccc13)C1=NC(=O)C(NCCCc3ccccc3)=C12` [Compound 4, 3-Ethoxy-9-(3-phenyl-propylamino)-acenaphtho[1,2-b]pyrrol-8-one] yielded a melting point of 250 to 251 °C.

In the case of `CCCCNC1=C2C(=NC1=O)c1cccc3c(C(=O)c4ccccc4)ccc2c13` [Compound 5, 3-Benzoyl-9-butylamino-acenaphtho[1,2-b]pyrrol-8-one], the melting point fell in the range of 262 to 263 °C.

The target in the next data set is T1, interaction between Bcl-2 and Bax (Homo sapiens, UniProt P10415).
T1 construct: expressed in transfected cells; host or cells: Hela cells
T1 sequence (P10415 whole entry): as the sequence (P10415 whole entry, species assumed) above
Put plainly: Intracellular FRET, Bcl-2-CFP/Bax-YFP in Hela cells. The class given is cell-based.
Conditions: not given
Here is the method: 2 μg of Bcl-2-CFP and Bax-YFP plasmids were transfected separately or simultaneously into Hela cells by using calcium phosphate coprecipitation method, 24 hours later, the cells were inoculated in a 6-well plate (2×10^5 cells/well), and the compound 1 to be detected dissolved in DMSO was added there into until the final concentration (2, 5, 10 and 15 μM) was achieved. 24 hours later (please refer to FIG. 5); the cells were washed with PBS for three times. The fluorescence value was detected by GENIOS fluorescence enzyme-labelled meter (TECAN, Swiss). In time-dependent experiment, the transfected cells were inoculated in a 6-well plate, after that, 40 μM of the compound was added thereinto. 3, 6 and 24 hours later (FIG. 6), the fluorescence intensities were detected by plate reader. As for the cell group in which only Bcl-2-CFP plasmid was transfected, the values at 475 nm emission wave length and 433 nm excitation wave length were recorded. As for the cell group in which only Bax-YFP plasmid was transfected, the values at 527 nm emission wave length and 505 nm excitation wave length were recorded. As for the cell group in which Bcl-2-CFP and Bax-YFP plasmids were co-transfected, the values at 527 nm and 475 emission wave lengths and 433 nm excitation wave length were recorded. The ratio of fluorescence intensity at 527 nm and 475 nm emission wave lengths was FRET. The FRET for the control group in which the plasmid was solely transfected was set as 1.0. […] In the cotransfected cells, the FRET increased up to 2.0 due to the interaction of Bcl-2 protein and Bax protein, and that the interference to the interaction between the two proteins increased and FRET decreased with the increase of the drug concentration and time. The cellular vitality was detected by MTT method. When the concentration of the compound reached 1 μM, the interaction between Bcl-2 and Bax can be interfered after 2 hours, and the results appeared concentration-time dependent trend.
Wherein the concentration and time meant that the detected compound interfered with the interaction between Bcl-2 and Bax at the concentration for the time period.
Consider `CCCCN(C)C1=C2C(=NC1=O)c1cccc3cccc2c13` [Compound 6, 9-(Butyl-methyl-amino)-acenaphtho[1,2-b]pyrrol-8-one], for which the “Doses (concentration at which the compound interfered with the interaction between Bcl-2 and Bax)” value amounted to 2.0 µM.

As to `CCOc1ccc2c3c(cccc13)C1=NC(=O)C(NCCCc3ccccc3)=C12` [Compound 4, 3-Ethoxy-9-(3-phenyl-propylamino)-acenaphtho[1,2-b]pyrrol-8-one], the “Doses (concentration at which the compound interfered with the interaction between Bcl-2 and Bax)” value turned out to be 1.0 µM.

As to `CCCCNC1=C2C(=NC1=O)c1cccc3c(C(=O)c4ccccc4)ccc2c13` [Compound 5, 3-Benzoyl-9-butylamino-acenaphtho[1,2-b]pyrrol-8-one], the “Doses (concentration at which the compound interfered with the interaction between Bcl-2 and Bax)” value came to 2.0 µM.

The data set is the same for the next values; noted with them: at the concentration given.
As for `CCCCN(C)C1=C2C(=NC1=O)c1cccc3cccc2c13` [Compound 6, 9-(Butyl-methyl-amino)-acenaphtho[1,2-b]pyrrol-8-one], the “Time (time period after which the interaction between Bcl-2 and Bax was interfered)” value is 5 h.

Regarding `CCOc1ccc2c3c(cccc13)C1=NC(=O)C(NCCCc3ccccc3)=C12` [Compound 4, 3-Ethoxy-9-(3-phenyl-propylamino)-acenaphtho[1,2-b]pyrrol-8-one], the “Time (time period after which the interaction between Bcl-2 and Bax was interfered)” value amounted to 5 h.

Regarding `CCCCNC1=C2C(=NC1=O)c1cccc3c(C(=O)c4ccccc4)ccc2c13` [Compound 5, 3-Benzoyl-9-butylamino-acenaphtho[1,2-b]pyrrol-8-one], the “Time (time period after which the interaction between Bcl-2 and Bax was interfered)” value was determined as 6 h.

A further data set addresses Bcl-2 protein (Homo sapiens, UniProt P10415). Kind of data set: ELISA assay, competitive binding to Bcl-2 protein (biotin-Bim/streptavidin plate). The note with it: method calculates average IC50, read-out: Bcl-2 binding constants. As to the method:
as §1, §2, §3
As for `CCCCN(C)C1=C2C(=NC1=O)c1cccc3cccc2c13` [Compound 6, 9-(Butyl-methyl-amino)-acenaphtho[1,2-b]pyrrol-8-one], the IC50 is 45 nM.

For `CCOc1ccc2c3c(cccc13)C1=NC(=O)C(NCCCc3ccccc3)=C12` [Compound 4, 3-Ethoxy-9-(3-phenyl-propylamino)-acenaphtho[1,2-b]pyrrol-8-one], the IC50 was 35 nM.

On to `CCCCNC1=C2C(=NC1=O)c1cccc3c(C(=O)c4ccccc4)ccc2c13` [Compound 5, 3-Benzoyl-9-butylamino-acenaphtho[1,2-b]pyrrol-8-one], for which the IC50 is 65 nM.

Another data set concerns MCF-7 cells transfected with BAX/BAK interfering plasmid. Kind of data set: Cytotoxicity by MTT, cells transfected with BAX/BAK interfering plasmid. The format is cell-based. The note with it: Homo sapiens, MCF7; MCF-7 with BAX/BAK interfering plasmid, MTT, 48 hours. As to the method: (§4) 3 μg of BAX/BAK interfering plasmid was transfected into MCF-7 cells by using calcium phosphate coprecipitation method, 24 hours later, the cells were collected. The expressions after the BAX and BAK proteins interfered with RNA was detected by Western, and the cell groups without plasmid transfection were treated similarly and were set as the control group. The transfected cells were inoculated in a 96-well plate (1×10^5 cells/well), the control experiment of the cell group without plasmid transfection was carried out in parallel. The compound 1 to be detected was added thereinto according to the concentration gradient designed before the experiment. 48 hours later, the cellular vitality was detected by MTT. The experimental results were shown in FIG. 9, Gossypol as nonspecific BH3 analogue was treated in parallel.
(§5) Other 24 compounds were also detected by the same experimental method as described above, the differences of IC50 values between the transfected cells and the without plasmid transfection cells were compared.
With `CCCCN(C)C1=C2C(=NC1=O)c1cccc3cccc2c13` [Compound 6, 9-(Butyl-methyl-amino)-acenaphtho[1,2-b]pyrrol-8-one], the IC50 is above 50000 nM.

`CCOc1ccc2c3c(cccc13)C1=NC(=O)C(NCCCc3ccccc3)=C12` [Compound 4, 3-Ethoxy-9-(3-phenyl-propylamino)-acenaphtho[1,2-b]pyrrol-8-one] showed an IC50 above 50000 nM.

In turn, `CCCCNC1=C2C(=NC1=O)c1cccc3c(C(=O)c4ccccc4)ccc2c13` [Compound 5, 3-Benzoyl-9-butylamino-acenaphtho[1,2-b]pyrrol-8-one] registered an IC50 above 50000 nM.

Another data set has as its system MCF-7 cells. Kind of data set: Cytotoxicity by MTT, cells without plasmid transfection. The format is cell-based. Particulars: Homo sapiens, MCF7; MCF-7, MTT, 48 hours; read-out: IC50 value in untransfected cells. Here is the method: as §4, §5
`CCCCN(C)C1=C2C(=NC1=O)c1cccc3cccc2c13` [Compound 6, 9-(Butyl-methyl-amino)-acenaphtho[1,2-b]pyrrol-8-one]: the IC50 was determined as 4000 nM.

Consider `CCOc1ccc2c3c(cccc13)C1=NC(=O)C(NCCCc3ccccc3)=C12` [Compound 4, 3-Ethoxy-9-(3-phenyl-propylamino)-acenaphtho[1,2-b]pyrrol-8-one], for which the IC50 came to 5600 nM.

Consider `CCCCNC1=C2C(=NC1=O)c1cccc3c(C(=O)c4ccccc4)ccc2c13` [Compound 5, 3-Benzoyl-9-butylamino-acenaphtho[1,2-b]pyrrol-8-one], for which the IC50 is 6500 nM.
